Converted amounts (≈) assume the structure as drawn.
Tests used:
Assay type in all cases: cell-based
[1] = tested on: Shigella sp.; assay: MIC by gradient plate in vitro method, Shigella sp.; conditions: read-out: Minimum Inhibitory Concentration
Excerpt: (§1) The antibiotic activity of the cephalosporin compounds of this invention is illustrated by the data provided in the following Table of representative compounds. The values in the Table are the minimum inhibitory concentrations (MIC) for the test compounds against the indicated microorganisms. The MIC values were obtained using the gradient plate in vitro method for determining antibiotic activity.

[2] = tested on: Escherichia coli; assay: MIC by gradient plate in vitro method, Escherichia coli; conditions: read-out: Minimum Inhibitory Concentration
Excerpt: as §1

[3] = tested on: Klebsiella pneumoniae; assay: MIC by gradient plate in vitro method, Klebsiella pneumoniae; conditions: read-out: Minimum Inhibitory Concentration
Excerpt: as §1

[4] = tested on: Aerobacter aerogenes; assay: MIC by gradient plate in vitro method, Aerobacter aerogenes; conditions: Klebsiella aerogenes, read-out: Minimum Inhibitory Concentration
Excerpt: as §1

[5] = tested on: Salmonella heidelberg; assay: MIC by gradient plate in vitro method, Salmonella heidelberg; conditions: Salmonella enterica, read-out: Minimum Inhibitory Concentration
Excerpt: as §1

[6] = tested on: Pseudomonas aeruginosa; assay: MIC by gradient plate in vitro method, Pseudomonas aeruginosa; conditions: read-out: Minimum Inhibitory Concentration
Excerpt: as §1

[7] = tested on: Serratia marcescens; assay: MIC by gradient plate in vitro method, Serratia marcescens; conditions: read-out: Minimum Inhibitory Concentration
Excerpt: as §1

[8] = tested on: V41; assay: MIC by gradient plate in vitro method, V41 (penicillin resistant Staphylococcus); conditions: read-out: Minimum Inhibitory Concentration
Excerpt: as §1
(§2) ^1 Test organisms V41, V32, and V84 are penicillin resistant
(§3) Staphylococcus. X-400 is a methicillin resistant Staphylococcus.

[9] = tested on: V32; assay: MIC by gradient plate in vitro method, V32 (penicillin resistant Staphylococcus); conditions: read-out: Minimum Inhibitory Concentration
Excerpt: as §1, §2, §3

[10] = tested on: X400; assay: MIC by gradient plate in vitro method, X400 (methicillin resistant Staphylococcus); conditions: read-out: Minimum Inhibitory Concentration
Excerpt: as §1, §3

[11] = tested on: V84; assay: MIC by gradient plate in vitro method, V84 (penicillin resistant Staphylococcus); conditions: read-out: Minimum Inhibitory Concentration
Excerpt: as §1, §2, §3

`CC(=O)OCC1=C(C(=O)O)N2C(=O)C(NC(=O)C(NC(=O)n3c(=O)[nH]c4ccccc43)c3ccccc3)[C@H]2SC1` (stereo partly drawn) [Test Compound A, 7-[α-(2,3-Dihydro-2-oxo-1H-benzimidazol-1-ylcarbonylamino)phenylacetamido]-3-acetoxymethyl-3-cephem-4-carboxylic acid] gave an MIC [1] of 100 µg/mL (≈ 177 µM), an MIC [2] of 140 µg/mL (≈ 248 µM) and an MIC [3] of 90 µg/mL (≈ 159 µM). For the same compound, the MIC [4] was 140 µg/mL (≈ 248 µM), the MIC [5] was 120 µg/mL (≈ 212 µM) and the MIC [6] was 16 µg/mL (≈ 28.3 µM). For the same compound, the MIC [7] was over 200 µg/mL, the MIC [8] was 8 µg/mL (≈ 14.1 µM) and the MIC [9] was 11 µg/mL (≈ 19.4 µM). It also gave an MIC [10] of over 20 µg/mL and an MIC [11] of 8 µg/mL (≈ 14.1 µM).

For `Cn1nnnc1SCC1=C(C(=O)O)N2C(=O)C(NC(=O)C(NC(=O)n3c(=O)[nH]c4ccccc43)c3ccccc3)[C@H]2SC1` (stereo partly drawn) [Test Compound B, 7-[α-(2,3-Dihydro-2-oxo-1H-benzimidazol-1-ylcarbonylamino)phenylacetamido]-3-(1-methyltetrazol-5-ylthiomethyl)-3-cephem-4-carboxylic acid], the MIC [1] was 16 µg/mL (≈ 25.7 µM), the MIC [2] was 9 µg/mL (≈ 14.5 µM) and the MIC [3] was 7 µg/mL (≈ 11.3 µM). It also gave an MIC [4] of 21.8 µg/mL (≈ 35.1 µM), an MIC [5] of 15 µg/mL (≈ 24.1 µM) and an MIC [6] of 12 µg/mL (≈ 19.3 µM). The MIC [7] was 120 µg/mL (≈ 193 µM), the MIC [8] was 1 µg/mL (≈ 1.61 µM) and the MIC [9] was 6 µg/mL (≈ 9.65 µM). It also gave an MIC [10] of over 20 µg/mL and an MIC [11] of 0.9 µg/mL (≈ 1.45 µM).

`CC(=O)OCC1=C(C(=O)O)N2C(=O)C(NC(=O)C(NC(=O)n3c(=O)n(C)c4ccccc43)c3ccccc3)[C@H]2SC1` (stereo partly drawn) [Test Compound C, 7-[α-(3-Methyl-2,3-dihydro-2-oxo-1H-benzimidazol-1-ylcarbonylamino)phenylacetamido]-3-acetoxymethyl-3-cephem-4-carboxylic acid] was tested, and the MIC [1] was 55 µg/mL (≈ 94.9 µM), the MIC [2] was 72.5 µg/mL (≈ 125 µM) and the MIC [3] was 25 µg/mL (≈ 43.1 µM). It also gave an MIC [4] of 120 µg/mL (≈ 207 µM), an MIC [5] of 80 µg/mL (≈ 138 µM) and an MIC [6] of 8.5 µg/mL (≈ 14.7 µM). The MIC [7] was over 200 µg/mL, the MIC [8] was 5 µg/mL (≈ 8.63 µM) and the MIC [9] was 6 µg/mL (≈ 10.4 µM). The MIC [10] was over 20 µg/mL and the MIC [11] was 0.9 µg/mL (≈ 1.55 µM).

For `Cn1nnnc1SCC1=C(C(=O)O)N2C(=O)C(NC(=O)C(NC(=O)n3c(=O)n(C)c4ccccc43)c3ccccc3)[C@H]2SC1` (stereo partly drawn) [Test Compound D, 7-[α-(3-Methyl-2,3-dihydro-2-oxo-1H-benzimidazol-1-ylcarbonylamino)phenylacetamido]-3-(1-methyltetrazol-5-ylthiomethyl)-3-cephem-4-carboxylic acid], the MIC [1] was 15 µg/mL (≈ 23.6 µM), the MIC [2] was 14 µg/mL (≈ 22 µM) and the MIC [3] was 19 µg/mL (≈ 29.9 µM). It also gave an MIC [4] of 30 µg/mL (≈ 47.2 µM), an MIC [5] of 18 µg/mL (≈ 28.3 µM) and an MIC [6] of 8 µg/mL (≈ 12.6 µM). The MIC [7] was over 200 µg/mL, the MIC [8] was 3 µg/mL (≈ 4.72 µM) and the MIC [9] was 3 µg/mL (≈ 4.72 µM). For the same compound, the MIC [10] was 16 µg/mL (≈ 25.2 µM) and the MIC [11] was 0.6 µg/mL (≈ 0.944 µM).

`NC(=O)OCC1=C(C(=O)O)N2C(=O)C(NC(=O)C(NC(=O)n3c(=O)[nH]c4ccccc43)c3ccc(O)cc3)[C@H]2SC1` (stereo partly drawn) [Test Compound E, 7-[α-(2,3-dihydro-2-oxo-1H-benzimidazol-1-ylcarbonylamino)-4-hydroxyphenylacetamido]-3-carbamoyloxymethyl-3-cephem-4-carboxylic acid] showed an MIC [1] of 120 µg/mL (≈ 206 µM), an MIC [2] of 160 µg/mL (≈ 275 µM) and an MIC [3] of 100 µg/mL (≈ 172 µM). It also gave an MIC [4] of over 200 µg/mL, an MIC [5] of 120 µg/mL (≈ 206 µM) and an MIC [6] of 10 µg/mL (≈ 17.2 µM). For the same compound, the MIC [7] was over 200 µg/mL, the MIC [8] was 5 µg/mL (≈ 8.58 µM) and the MIC [9] was 5 µg/mL (≈ 8.58 µM). The MIC [10] was 180 µg/mL (≈ 309 µM) and the MIC [11] was 0.7 µg/mL (≈ 1.2 µM).

Source: patent publication US4061861A, “7-[α-(2,3-DIHYDRO-2-OXO-1H-benzimidazol-1-ylcarbonyl-amino) arylacetamido]cephalosporins” (Eli Lilly and Company, priority 1976, dated 1977)
